Laboratory results taken from patent publication US5102888A, “Quinoline type mevalonolactones useful for treating hyperlipidemia and related diseases” (Nissan Chemical Industries Ltd., priority 1987, dated 1992).
Counter-ions that a name gives are not always drawn.

Target: cholesterol biosynthesis wherein HMG-CoA reductase acts as a rate limiting enzyme (rat liver microsome and sup fraction)
Assay: Test A: Inhibition of Cholesterol Biosynthesis from Acetate In Vitro
Type: biochemical, male Wistar rat
Details: for IC50: [2-14C]sodium acetate incorporation, rat liver microsome + sup fraction, 2 hours, 37° C., read-out: I50 (Inhibitory activities by Test A); for Relative activities by Test A: relative to activity of CS-514 evaluated to be 1
Method: Enzyme solution was prepared from liver of male Wistar rat billialy cannulated and discharged bile for over 24 hours. Liver was cut out at mid-dark and microsome and supernatant fraction which was precipitable with 40-80% of saturation of ammonium sulfate (sup fraction) were prepared from liver homogenate according to the modified method of Knauss et. al.; Kuroda, M., et. al., Biochim. Biophys. Acta, 489, 119 (1977). For assay of cholesterol biosynthesis, microsome (0.1 mg protein) and sup fraction (1.0 mg protein) were incubated for 2 hours at 37° C. in 200 μl of the reaction mixture containing ATP; 1 mM, Glutathione; 6 mM, Glucose-1-phosphate; 10 mM, NAD; 0.25 mM, NADP; 0.25 mM, CoA; 0.04 mM and 0.2 mM [2-^14 C]sodium acetate (0.2 μCi) with 4 μl of test compound solution dissolved in water or dimethyl sulfoxide. To stop reaction and saponify, 1 ml of 15% EtOH--KOH was added to the reactions and heated at 75° C. for 1 hour. […] Inhibitory activity of compounds was indicated with IC50.

Row | Relative activities by Test A | SMILES | IC50 [nM]
1 |  | CCC(C)C(=O)OC1CC(O)C=C2C=CC(C)C(CCC(O)CC(O)CC(=O)O)C21 (stereo not shown) [CS-514, reference compound] | 9
2 |  | CC(C)c1nc2ccccc2c(-c2ccc(F)cc2)c1/C=C/C(O)CC(O)CC(=O)O (stereo not shown) [Compound I-51, Sodium salt of (E)-3,5-dihydroxy-7-[4'-(4"-fluorophenyl)-2'-(1"-methylethyl)-quinolin-3'-yl]-hept-6-enoic acid] | 10
3 | 0.37 | CCOC(=O)CC(O)CC(O)/C=C/c1c(CC)nc2ccccc2c1-c1ccc(F)cc1 (stereo not shown) [Compound I-117] | 
4 | 0.76 | CC(C)c1nc2c(Cl)cc(Cl)cc2c(-c2ccc(F)cc2)c1/C=C/C(O)CC(O)CC(=O)O (stereo not shown) [Compound I-522] | 
